Data reported in patent US20040038855A1 (priority 1999, published 2004).
Values belong to the compound of their own block, whether it stands above or below them.

Experiments:
rat MCH1 receptor = target: T1, rat MCH1 receptor (Rattus norvegicus, UniProt P97639); assay: Binding affinity (Ki) at the rat MCH1 receptor; conditions: Examples 142-153; read-out: Ki (nM) rMCH1
T1 construct: expressed in transfected cells

[1] = system: micturition reflex, conscious male Sprague Dawley rats; assay: Continuous Slow Transvesicular Infusion (CSTI) rat model; assay type: in vivo; design: key to Effect of MCH1 antagonist in the CSTI model: B = Produced an increase in bladder capacity in rats relative to baseline capacity; conditions: bladder capacity, intragastric
Procedure: The effects of compounds on the micturition reflex were assessed in the “distension-induced rhythmic contraction” (DIRC), as described in previous publications (e.g. Maggi et al, 1987; Morikawa et al, 1992), and Continuous Slow Transvesicular Infusion (CSTI) models in rats. Male Sprague Dawley rats weighing approximately 300 g were used for the study. Rats were anaesthetized with pentobarbitone sodium (50 mg/kg, i.p). Through a median abdominal incision, bladder was exposed and a polyethylene cannula (PE 50) was introduced into the bladder through a small cut on the dome of the bladder and the cannula was secured with a purse string suture. The other end of the cannula was exteriorized subcutaneously at the dorsal neck area. Similarly, another cannula (PE 50) was introduced into the stomach through a paramedian abdominal incision with the free end exteriorized subcutaneously to the neck region. The surgical wounds were closed with silk 4-0 suture and the animal was allowed to recover with appropriate post surgical care. On the following day, the animal was placed in a rat restrainer. The open end of the bladder cannula was connected to a pressure transducer as well as infusion pump through a three-way stopcock. The bladder voiding cycles were initiated by continuous infusion of normal saline at the rate of 100 ul/min. The repetitive voiding contractions were recorded on a Power Lab on-line data acquisition software. After recording the basal voiding pattern for an hour, the test drug or vehicle was administered directly into stomach through the intragastric catheter and the voiding cycles were monitored for 5 hours. Micturition pressure and frequency were calculated before and after the treatment (at every 30 min interval) for each animal. Bladder capacity was calculated from the micturition frequency, based on the constant infusion of 100 ul/min. The effect of the test drug was expressed as a percentage of basal, pre-drug bladder capacity. WAY 100635 was used as positive control for comparison.

[2] = system: micturition reflex, anesthetized female Sprague Dawley rats; assay: Distension-induced rhythmic contraction (DIRC) model; assay type: in vivo, rat; design: key: A = Produced a significant increase in contraction interval relative to pre-drug interval; conditions: contraction interval, i.v. or i.p.
Procedure: The effects of compounds on the micturition reflex were assessed in the “distension-induced rhythmic contraction” (DIRC), as described in previous publications (e.g. Maggi et al, 1987; Morikawa et al, 1992), and Continuous Slow Transvesicular Infusion (CSTI) models in rats.
Female Sprague Dawley rats weighing approximately 300 g were anesthetized with subcutaneous urethane (1.2 g/kg). The trachea was cannulated with PE240 tubing to provide a clear airway throughout the experiment. A midline abdominal incision was made and the left and right ureters were isolated. The ureters were ligated distally (to prevent escape of fluids from the bladder) and cannulated proximally with PE10 tubing. The incision was closed using 4-0 silk sutures, leaving the PE10 lines routed to the exterior for the elimination of urine. The bladder was canulated via the transurethral route using PE50 tubing inserted 2.5 cm beyond the urethral opening. This cannula was secured to the tail using tape and connected to a pressure transducer. To prevent leakage from the bladder, the cannula was tied tightly to the exterior urethral opening using 4-0 silk.
To initiate the micturition reflex, the bladder was first emptied by applying pressure to the lower abdomen, and then filled with normal saline in […] (maximum 2 ml) until spontaneous bladder contractions occurred (typically 20-40 mmHg at a rate of one contraction every 2 to 3 minutes. Once a regular rhythm was established, vehicle (saline) or Test Compounds were administered i.v. or i.p. to explore their effects on bladder activity. The 5-HT1A antagonist WAY-100635 was given as a positive control. Data were expressed as contraction interval (in seconds) before drug application (basal), or after the application of vehicle or test article.

[3] = target: T2, MCH1 receptor binding sites in the rat CNS (Rattus norvegicus, UniProt P97639); assay: Receptor autoradiography with [3H]Compound 10 on rat brain and spinal cord sections; design: key to Density of MCH1 receptor binding sites: absent (−); weak (+); moderate (++); heavy (+++); intense (++++); conditions: for Density of MCH1 receptor binding sites: 0.1 nM [3H] Compound 10, 1 μM prazosin, 100 μM dopamine, rat CNS
T2 construct: from tissue; host or cells: coronal brain and spinal cord sections of male Sprague-Dawley rats
T2 sequence (P97639 whole entry): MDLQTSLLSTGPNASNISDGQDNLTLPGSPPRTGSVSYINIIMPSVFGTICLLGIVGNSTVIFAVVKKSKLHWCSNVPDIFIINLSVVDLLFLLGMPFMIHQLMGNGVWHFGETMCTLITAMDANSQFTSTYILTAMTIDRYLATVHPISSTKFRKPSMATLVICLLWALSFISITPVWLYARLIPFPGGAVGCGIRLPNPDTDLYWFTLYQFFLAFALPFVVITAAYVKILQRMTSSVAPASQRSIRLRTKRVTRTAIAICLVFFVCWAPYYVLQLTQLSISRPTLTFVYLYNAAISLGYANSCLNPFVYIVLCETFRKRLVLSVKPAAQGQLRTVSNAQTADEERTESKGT
Procedure: Male Sprague-Dawley rats (Charles Rivers, Rochester, N.Y.) were euthanized using CO2 and decapitated and their brains rapidly removed and frozen on crushed dry ice. Coronal sections were cut at 20 μm using a cryostat and thaw-mounted onto gelatin-coated slides then stored at −20° C. until use.
Dopamine, prazosin, and phenanthroline were obtained from Sigma (St. Louis, Mo.). Phenylmethylsulfonyl Fluoride (PMSF) was from Calbiochem (La Jolla, Calif.). See also Chemical Synthetic Methods described hereinafter.
Tissue sections were allowed to equilibrate to room temperature for one hour. Sections were incubated at 25° C. for 1.5 hours in 50 mM Tris-HCl buffer, pH 7.4, containing 10 mM MgCl2, 0.16 mM PMSF, 0.3 mM phenanthroline, 0.2% bovine serum albumin (Boehringer Mannheim, Indianapolis, Ind.), 100 μM dopamine, 1 μM prazosin, […] Following incubation the sections were washed twice for 5 minutes each in 4° C. 50 mM Tris-buffer, pH 7.4, then rapidly dipped in ice-cold distilled water to remove the salts. Tissues were dried under a stream of cold air and apposed together with ^3H-plastic standard scales, to Hyperfilm-^3H (Amersham, Piscataway, N.J.) for 6 weeks. Films were developed using a Kodak developer-D19 and Rapid fixer (Kodak, Rochester, N.Y.). […]

human MCH1 receptor = human MCH1 receptor (Homo sapiens, UniProt Q99705); assay: Saturation and competition binding of [3H]Compound 10, membranes of Cos-7 cells transfected with MCH1; design: expressed in transfected cells; host or cells: COS-7
Sequence of human MCH1 receptor (Q99705 whole entry): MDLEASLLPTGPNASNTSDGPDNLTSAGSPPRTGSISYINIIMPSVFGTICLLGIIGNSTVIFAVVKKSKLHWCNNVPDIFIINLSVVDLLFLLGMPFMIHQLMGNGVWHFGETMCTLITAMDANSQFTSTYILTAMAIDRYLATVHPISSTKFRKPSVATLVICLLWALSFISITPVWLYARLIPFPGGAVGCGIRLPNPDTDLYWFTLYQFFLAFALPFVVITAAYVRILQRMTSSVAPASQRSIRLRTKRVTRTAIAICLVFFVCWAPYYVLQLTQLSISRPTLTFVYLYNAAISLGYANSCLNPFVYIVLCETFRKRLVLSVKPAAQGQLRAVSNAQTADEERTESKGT
Procedure: Saturation equilibrium binding of [3H]Compound 10 to the human MCH1 receptor. Membrane preparations from Cos-7 cells transfected with MCH1 were incubated with varying concentrations of [3H]Compound 10 (SA: 56 Ci/mmol) at room temperature for 90 min, in a volume of 0.250 ml. The reaction was terminated by filtration in GF/C filters, and the radioactivity determined by scintillation counting. Non-specific binding was defined as the amount of radioactivity retained in the filter after incubating the reaction mixture in the presence of unlabeled Compound 10 ([…]).
Competition binding of [3H]Compound 10 to the human MCH1 receptor. […] The reaction was terminated by filtration in GF/C filters and the radioactivity bound to the membrane was determined by scintillation counting.
[3H]Compound 10 was tested for its ability to bind to membrane preparations of cells expressing the human MCH1 receptor.

T1 sequence (P97639 whole entry): as the sequence (P97639 whole entry) above

Ki (rat MCH1 receptor): 7.1 nM
SMILES: Cc1onc(-c2c(Cl)cccc2Cl)c1C(=O)NCCCCCN1CCC(c2cccc(NC(=O)C(C)C)c2)CC1 [Example 149]
Effect of MCH1 antagonist in the CSTI model [1]: B
Effect of MCH1 antagonist in the DIRC model [2]: A

Ki (rat MCH1 receptor): 3.8 nM
SMILES: CC(=O)c1cccc(O[C@H](CCN2CCC(c3cccc(NC(=O)C(C)C)c3)CC2)c2ccccc2)c1 [Example 151]
Effect of MCH1 antagonist in the CSTI model [1]: B
Effect of MCH1 antagonist in the DIRC model [2]: A

specific binding ([3]; 0.1 nM with 100 μM dopamine and 1 μM prazosin, nonspecific: 10 μM unlabeled Compound 10): approximately 95%
Density of MCH1 receptor binding sites ([3]; Amygdala: Anterior cortical n.): +
Density of MCH1 receptor binding sites ([3]; Amygdala: Basolateral amygdaloid n.): +
Density of MCH1 receptor binding sites ([3]; Amygdala: Bed n. Of the stria terminalis): ++
Density of MCH1 receptor binding sites ([3]; Amygdala: Central amygdaloid n.): +
Density of MCH1 receptor binding sites ([3]; Basal Ganglia: Accumbens n., core): +++
Density of MCH1 receptor binding sites ([3]; Basal Ganglia: Accumbens n., shell): ++++
Density of MCH1 receptor binding sites ([3]; Basal Ganglia: Caudate-putamen): +++
Density of MCH1 receptor binding sites ([3]; Basal Ganglia: Globus pallidus): −
Density of MCH1 receptor binding sites ([3]; Basal Ganglia: Medial septal n.): +
Density of MCH1 receptor binding sites ([3]; Basal Ganglia: Septohippocampal n.): +
Density of MCH1 receptor binding sites ([3]; Cerebellum): −
Density of MCH1 receptor binding sites ([3]; Diencephalon, Thalamus: Anterodorsal n.): +
Density of MCH1 receptor binding sites ([3]; Diencephalon, Thalamus: Centromedial n.): +
Density of MCH1 receptor binding sites ([3]; Diencephalon, Thalamus: Mediodorsal n.): −
Density of MCH1 receptor binding sites ([3]; Diencephalon, Thalamus: Paraventricular n.): +
Density of MCH1 receptor binding sites ([3]; Diencephalon, Thalamus: Reticular n.): +
Density of MCH1 receptor binding sites ([3]; Diencephalon: Hypothalamus): +
Density of MCH1 receptor binding sites ([3]; Hippocampal formation: CA1): ++
Density of MCH1 receptor binding sites ([3]; Hippocampal formation: CA2): ++
Density of MCH1 receptor binding sites ([3]; Hippocampal formation: CA3): ++
Density of MCH1 receptor binding sites ([3]; Hippocampal formation: Pre/parasubiculum): ++
Density of MCH1 receptor binding sites ([3]; Locus coeruleus (listed under Mesencephalon)): ++
Density of MCH1 receptor binding sites ([3]; Mesencephalon: Caudal linear raphe n.): +
Density of MCH1 receptor binding sites ([3]; Mesencephalon: Interpeduncular n.): ++
Density of MCH1 receptor binding sites ([3]; Mesencephalon: Periaqueductal gray): +
Density of MCH1 receptor binding sites ([3]; Mesencephalon: Pontine n.): +
Density of MCH1 receptor binding sites ([3]; Mesencephalon: Substantia nigra): +
Density of MCH1 receptor binding sites ([3]; Mesencephalon: Superior colliculus): ++
Density of MCH1 receptor binding sites ([3]; Olfactory System: Anterior olfactory n.): +
Density of MCH1 receptor binding sites ([3]; Olfactory System: Islands of Calleja, major): +++
Density of MCH1 receptor binding sites ([3]; Olfactory System: Olfactory tubercle): +++
Density of MCH1 receptor binding sites ([3]; Spinal cord: Dorsal horn): +
Density of MCH1 receptor binding sites ([3]; Spinal cord: Ventral horn): +
Density of MCH1 receptor binding sites ([3]; Telencephalon: Claustrum): ++
Density of MCH1 receptor binding sites ([3]; Telencephalon: Dorsal endopiriform n.): +
maximum number of binding sites (Bmax) (human MCH1 receptor): 870 fmol/mg protein
SMILES: [3H]C1CN(CCCNC(=O)N2C(=O)NC(COC)=C(C(=O)OC)[C@@H]2c2ccc(F)c(F)c2)CCC1([3H])c1cccc(NC(C)=O)c1 (stereo partly drawn) [[3H]Compound 10, TRITIATED METHYL (4S)-3-{[(3-{4-[3-(ACETYLAMINO)PHENYL]-1-PIPERIDINYL}PROPYL)AMINO]CARBONYL}-4-(3,4-DIFLUOROPHENYL)-6-(METHOXYMETHYL)-2-OXO-1,2,3,4-TETRAHYDRO-5-PYRIMIDINECARBOXYLATE]
